This test relates to KMS.12.BM cells. The test is described as follows: KMS.12.BM cell viability assay (Cell Titer-GLO, ATP quantitation). The test is classed as cell-based. As to conditions: KMS-12-BM, 72 h; human myeloma cells, 3 days, concentration required for 50% cell death. Put shortly:
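KMS.12.BM human myeloma cells (5000/well, RPMI with 10% FBS) were exposed to a compound concentration range for 3 days. Viable cells were measured by CellTiter-Glo ATP luminescence. IC50 is the concentration giving 50% cell death relative to untreated cells.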
(In ATP-based viability assays light output follows the ATP content of the culture.)

In the case of `CC(C)S(=O)(=O)c1cc2c(c(-c3cn(C)c(=O)c4[nH]ccc34)c1)OC(C)(C)C(=O)N2` [Example 79, 6-(isopropylsulfonyl)-2,2-dimethyl-8-(6-methyl-7-oxo-6,7-dihydro-1H-pyrrolo[2,3-c]pyridin-4-yl)-2H-1,4-benzoxazin-3(4H)-one], the IC50 (commonly the concentration that gives 50% inhibition) was no more than 1 µM.

With `CC(O)c1cc2c(c(-c3cn(C)c(=O)c4[nH]ccc34)c1)OC(C)(C)C(=O)N2` (stereo not shown) [Example 81, 6-(1-hydroxyethyl)-2,2-dimethyl-8-(6-methyl-7-oxo-6,7-dihydro-1H-pyrrolo[2,3-c]pyridin-4-yl)-2H-1,4-benzoxazin-3(4H)-one], the IC50 was no more than 1 µM.

Molecule `CC(O)c1cc(-c2cn(C)c(=O)c3[nH]ccc23)c2c(c1)N(C)C(=O)C(C)(C)O2` (stereo not shown) [Example 83, 6-(1-hydroxyethyl)-2,2,4-trimethyl-8-(6-methyl-7-oxo-6,7-dihydro-1H-pyrrolo[2,3-c]pyridin-4-yl)-2H-1,4-benzoxazin-3(4H)-one] had an IC50 of no more than 1 µM.

The molecule `CC(C)C1Oc2c(cc(S(C)(=O)=O)cc2-c2cn(C)c(=O)c3[nH]ncc23)NC1=O` (stereo not shown) [Example 84, 2-isopropyl-8-(6-methyl-7-oxo-6,7-dihydro-1H-pyrazolo[3,4-c]pyridin-4-yl)-6-(methylsulfonyl)-2H-1,4-benzoxazin-3(4H)-one] returned an IC50 of no more than 1 µM.

These data come from US10472358B2, “1H-pyrrolo[2,3-c]pyridin-7(6H)-ones and pyrazolo[3,4-c]pyridin-7(6H)-ones as inhibitors of BET proteins” (Incyte Corporation, priority 2014, dated 2019).
